# According to PMC4942781, “A sodium channel inhibitor ISTX-I with a novel structure provides a new hint at the evolutionary link between two toxin folds” (Scientific Reports, 2016):
# Entries after “also recorded” stand apart in the source; their conditions may differ. Bridge positions count the residues as written; N and C are the ends. Ends that are not written are not given here.
# What was measured:
# [1] = target: T1, hNav1.7 (Homo sapiens, UniProt Q15858); assay: Whole-cell patch clamp, hNav1.7 in HEK293T cells; format: cell-based
# T1 construct: expressed in transfected cells; host or cells: HEK293T cells, transient transfection (Lipofectamine-2000)
# T1 sequence (Q15858 whole entry): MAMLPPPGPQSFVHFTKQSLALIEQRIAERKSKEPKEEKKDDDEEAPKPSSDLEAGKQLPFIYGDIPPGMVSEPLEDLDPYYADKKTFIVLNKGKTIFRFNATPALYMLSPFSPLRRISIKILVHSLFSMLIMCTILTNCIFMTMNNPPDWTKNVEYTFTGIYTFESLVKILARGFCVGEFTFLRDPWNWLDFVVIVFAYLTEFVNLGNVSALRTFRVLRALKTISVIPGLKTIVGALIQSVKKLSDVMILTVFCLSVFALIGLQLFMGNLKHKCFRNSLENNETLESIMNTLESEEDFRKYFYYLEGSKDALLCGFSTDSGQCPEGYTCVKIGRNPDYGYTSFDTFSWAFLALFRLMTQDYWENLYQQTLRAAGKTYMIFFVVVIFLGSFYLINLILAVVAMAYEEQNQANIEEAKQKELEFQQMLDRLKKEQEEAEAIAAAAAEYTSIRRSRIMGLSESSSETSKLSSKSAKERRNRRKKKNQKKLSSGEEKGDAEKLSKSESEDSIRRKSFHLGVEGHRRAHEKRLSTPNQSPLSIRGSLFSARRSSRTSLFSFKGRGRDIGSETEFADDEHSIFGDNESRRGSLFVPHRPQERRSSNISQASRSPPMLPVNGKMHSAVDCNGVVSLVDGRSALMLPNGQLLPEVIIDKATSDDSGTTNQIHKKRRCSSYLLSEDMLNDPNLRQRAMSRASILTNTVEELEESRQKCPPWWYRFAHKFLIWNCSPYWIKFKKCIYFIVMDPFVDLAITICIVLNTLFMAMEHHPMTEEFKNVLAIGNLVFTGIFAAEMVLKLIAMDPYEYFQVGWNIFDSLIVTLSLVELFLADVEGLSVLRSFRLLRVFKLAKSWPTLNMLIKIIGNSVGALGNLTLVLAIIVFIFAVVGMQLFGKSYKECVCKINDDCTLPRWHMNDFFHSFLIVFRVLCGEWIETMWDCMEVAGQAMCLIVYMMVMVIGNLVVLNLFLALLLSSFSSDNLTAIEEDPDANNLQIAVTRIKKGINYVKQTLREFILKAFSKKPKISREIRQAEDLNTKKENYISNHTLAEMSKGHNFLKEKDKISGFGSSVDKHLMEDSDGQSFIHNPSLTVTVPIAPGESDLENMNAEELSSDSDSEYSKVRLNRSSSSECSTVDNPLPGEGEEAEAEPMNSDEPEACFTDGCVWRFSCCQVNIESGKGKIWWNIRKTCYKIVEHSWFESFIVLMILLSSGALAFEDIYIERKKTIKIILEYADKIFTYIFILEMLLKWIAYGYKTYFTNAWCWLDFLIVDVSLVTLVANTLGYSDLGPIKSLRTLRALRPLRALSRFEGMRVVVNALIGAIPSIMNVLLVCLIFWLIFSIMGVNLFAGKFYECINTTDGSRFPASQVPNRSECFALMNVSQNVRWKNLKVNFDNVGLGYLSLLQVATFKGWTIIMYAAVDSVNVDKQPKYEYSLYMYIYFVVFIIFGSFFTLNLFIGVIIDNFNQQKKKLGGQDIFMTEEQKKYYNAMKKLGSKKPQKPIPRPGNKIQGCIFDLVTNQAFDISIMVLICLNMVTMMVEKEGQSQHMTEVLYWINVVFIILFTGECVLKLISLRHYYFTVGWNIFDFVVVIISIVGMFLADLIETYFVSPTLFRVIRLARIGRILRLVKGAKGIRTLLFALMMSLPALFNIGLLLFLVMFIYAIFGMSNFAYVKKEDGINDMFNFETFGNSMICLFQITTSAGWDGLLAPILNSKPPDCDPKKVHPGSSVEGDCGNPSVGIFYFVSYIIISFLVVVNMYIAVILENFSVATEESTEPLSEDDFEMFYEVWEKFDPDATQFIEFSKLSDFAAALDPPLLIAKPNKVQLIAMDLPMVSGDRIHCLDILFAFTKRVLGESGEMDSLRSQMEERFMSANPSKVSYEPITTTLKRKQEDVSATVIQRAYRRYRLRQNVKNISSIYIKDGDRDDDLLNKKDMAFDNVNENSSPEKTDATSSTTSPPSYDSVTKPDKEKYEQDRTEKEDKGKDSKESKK
# T1 sequence (Q07699 19-218, further chain): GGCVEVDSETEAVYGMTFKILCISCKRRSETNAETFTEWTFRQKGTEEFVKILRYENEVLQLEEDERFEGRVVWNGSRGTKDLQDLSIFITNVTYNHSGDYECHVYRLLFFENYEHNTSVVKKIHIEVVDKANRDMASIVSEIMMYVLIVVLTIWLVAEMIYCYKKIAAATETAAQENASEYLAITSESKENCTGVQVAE
# Protocol: Figure 4 Effects of ISTX-I expressed in HEK293 cells. Current traces were evoked with a 50ms step depolarization to −10 mV from a holding potential of −80 mV every 5s. […] (E) Steady-state inactivation of the hNav1.7 channel before (solid circles) and after (open circles) the application of 10 μM ISTX-I (n = 5).
# The effects of ISTX-I on the activation and inactivation kinetics of hNav1.7 were also analyzed. The current-voltage relationships were determined for Nav1.7 channels using step depolarization ranging from −80 to +40 mV from a holding potential of −80 mV.
# HEK293T (human embryonic kidney) cells were grown in DMEM containing 10% heat-inactivated FBS at 37 °C in a 5% CO2 incubator. The cDNA genes encoding human (h)Nav1.1, (h)Nav1.2, (h)Nav1.3, (h)Nav1.4, (h)Nav1.5, (h)Nav1.6 and (h)Nav1.7 were transiently transfected into HEK293T cells for electrophysiology using Lipofectamine-2000 (Invitrogen) in serum-reduced medium (Opti-MEM, Invitrogen) following the manufacturer’s instructions. The auxiliary subunits hβ1 and enhanced green florescent protein plasmids were cotransfected into HEK293T cells to increase the current density and efficiently select cells with green florescent protein for whole-cell patch-clamp recordings. After 12 h, the HEK293T cells were used for electrophysiological analysis.
# DRG neurons with a large diameter (>[…]) and those with a relatively small diameter (<[…]) were chosen by measuring TTX-s and TTX-r currents, respectively. Meanwhile, TTX (final concentration at 100 nM) was used to separate TTX-r sodium currents from TTX-s sodium currents. Suction pipettes (2.0–4.0 MΩ) were made of borosilicate glass capillary tubes with two-step pulling on a vertical micropipette puller (PC-10, Narishige). Potassium, calcium, and sodium currents were recorded in experimental cells using whole-cell patch-clamp recordings at room temperature, which were performed with an HEK EPC10 patch-clamp amplifier. The P/4 protocol was used to subtract linear capacitive and leakage currents. Experimental data were acquired and analyzed using the programs patch master and Sigmaplot 9.0 (Sigma, USA). All of the data points represent the mean ± SE (n = the number of separate experimental cells examined). Dose-response curves were fitted using the following Hill logistic equation: y = 1 − (1 − fmax)/[1 + ([Tx]/IC50)^n] in which n is an empirical Hill coefficient and fmax is the fraction of current resistant to inhibition at high toxin (Tx) concentrations.
# Electrophysiological studies.
# Currents were recorded from experimental cells using whole-cell patch clamptechnique at room temperature (22–25 °C). The patch pipettes were fabricated from borosilicate glass tubing using a two-stage vertical microelectrode puller (PC-10, Narishige, Japan). […]
# [2] = test system: TTX-r sodium channel; assay: Whole-cell patch clamp, TTX-r sodium currents in rat DRG neurons; format: cell-based
# Protocol: The effects of ISTX-I on voltage-gated ion channels were investigated in the dorsal root ganglion (DRG). DRG neurons were held at −80 mV for over 4 min to allow adequate equilibration between the micropipette solution and the cell interior, and then current traces were evoked using a 50 ms step depolarization to −10 mV every second.
# Figure 3 Effects of ISTX-I on voltage-gated ion channels in rat DRG neurons. […] (C) Dose-dependent inhibition of ISTX-I on the TTX-s Nav channel (n = 5). (D) Current-voltage (I-V) relationship for the TTX-s Nav channel currents before (solid circles) and after (open circles) the application of 5 μM ISTX-I (n = 5). […]
# DRG neurons with a large diameter (>[…]) and those with a relatively small diameter (<[…]) were chosen by measuring TTX-s and TTX-r currents, respectively. […] Potassium, calcium, and sodium currents were recorded in experimental cells using whole-cell patch-clamp recordings at room temperature, which were performed with an HEK EPC10 patch-clamp amplifier. […] Experimental data were acquired and analyzed using the programs patch master and Sigmaplot 9.0 (Sigma, USA). […]
# Currents were recorded from experimental cells using whole-cell patch clamptechnique at room temperature (22–25 °C). […] K+ currents were recorded using an internal solution containing the followings (in mM): KCl 140, MgCl2 2.5, HEPES 10, and EGTA 11 (pH 7.2). […]
# [3] = 5 μM ISTX-I, step depolarization from −80 to +40 mV, holding −80 mV
sequence,measurement,setting,value
"LCSENGDCAADECCVDTVFEGDMVTRSCEKTTGNFTECPGLTPIA (disulfide 2-14, 8-28, 13-38) [ISTX-I]",effect on hNav1.7 channel currents,"[1]; 1 μM ISTX-I, 50 ms step to −10 mV from −80 mV every 5 s",significantly depressed; also recorded: Inhibition of hNav1.7
same,shift of conductance–voltage (G-V) curve,[1]; [3],no effect; also recorded: did not shift
same,shift of current-voltage (I-V) curve,[1]; [3],no effect; also recorded: did not shift
same,shift of steady-state inactivation curve,"[1]; 10 μM ISTX-I, hNav1.7, n = 5",approximately −10 mV
same,effect on TTX-r sodium channels (summary),[2],not TTX-r sodium channels
same,effect on TTX-r sodium channel currents,"[2]; 10 μM ISTX-I, 100 nM TTX to separate TTX-r currents",no effect
